Assay results reported in patent publication US20100041632A1, “USES OF THE CARBOXY-AMIDO-TRIAZOLE COMPOUNDS AND SALTS THEREOF” (priority 2006, published 2010).

Tests used:
Type in all cases: in vivo
[1] = tested on: Wistar rats; experiment: Adjuvant induced arthritis (AA) of rat, paw oedema
Procedure: Negative control (AA+NS): […] positive control (AA+Dex): dexamethasone, i.p., 0.067 mg/kg/day. Vehicle control (AA+PEG400): […] CAI (AA+CAI): 20 mg/ml CAI, ig, 0.1 ml/100 g/day (20 mg/kg/day). Combination (AA+CAI+Dex): dexamethasone, 0.067 mg/kg/day (i.p.) plus CAI 20 mg/kg/day (p.o.). Normal volumes of left and right hind paw were measured before adjuvant injection. […]

[2] = tested on: Kunming mice; experiment: Mouse writhing test (acetic acid); conditions: 20 mg/kg ig for 4 days
Procedure: Kunming mice (18-22 g, male) were randomly divided into several groups with 20 animals in each group.
Control group: PEG400 was administered (ig) for 4 days, 0.1 ml/10 g body weight.
Test groups: CAI and its analogues (compounds with structural formula of A, R1═Cl or H, R2═Cl, H, Br, CH3 or CF3, R3═Cl, Br, CF3, NO2 or CN, X═O, S or C═O; The compounds are listed in Table 6 (A1˜A10)) were administered (ig) for 4 days (20 mg/kg body weight, 2 mg/ml).
The pain intensity test was carried out 8 hours after the last drug administration. 0.6% acetic acid (0.1 ml/10 g body weight) was injected (ip). The animals were put into a glass cylinder immediately. The writhing frequency in the following 5-15 minutes was recorded.

[3] = tested on: IL-1β; experiment: IL-1β levels in paw tissue and serum of adjuvant arthritis rat (ELISA); conditions: AA rats, day 29, ELISA
Procedure: The adjuvant arthritis rat was prepared as described in example 8. Treatment was performed as described in example 8. Blood was collected from eve socket on day 29 and left in room temperature to allow coagulating. Then serum was separated by centrifugation at 3000 rpm for 10 min and kept in −20° C. After animals were sacrificed, the subcutaneous tissue of the right hind paw and that surrounding the tarsotibial joints was removed, broke into pieces, and placed in 5 ml normal saline (0.9%). The tissues were homogenized in a high speed homogenizer. Then the homogenate was centrifuged at 4° C. and 10,000 rpm for 15 min. The supernatants were collected and stored at −20° C. until further analysis.
IL-1β and TNF-α levels in paw tissue and serum were measured using specific rat ELISA kits according to the manufacturer's instructions.

[4] = tested on: Kunming mice; experiment: Radiant heat test (tail-flick)
Procedure: The radiant heat dolorimeter (Collumbus Instruments) is used in this model with the tail-flick mode and the exposure rate of 20. The latency periods (TFL) starting from the beginning of exposure to the tail-flick responses were recorded as the pain threshold. The exposure time lasted for 16 seconds.
Kunming mice (18-22 g, male) are tested for the basic pain threshold before the test with drug administration, and those with pain threshold longer than 16 seconds are excluded. The selected mice are divided into 4 groups with 15 animals per group.
Control group with dissolvent: 10 μl PEG400 was administered (ig) twice with the interval of 24 hours. The pain intensity test was carried out 8 hours after the second administration. 200 μl N.S. was injected (sc) 5 minutes before the test.
Morphine/PEG400 group: 10 μl PEG400 was administered (ig) twice with the interval of 24 hours. The pain intensity test was carried out 8 hours after the second administration. Morphine (2 mg/kg body weight) was injected (sc) 5 minutes before the test.
CAI/N.S. group: CAI (20 mg/kg body weight, 2 mg/ml) was administered (ig) twice with the interval of 24 hours. The pain intensity test was carried out 8 hours after the second administration. 200 μl N.S. was injected (sc) 5 minutes before the test.
The pain intensity test was carried out 8 hours after the second administration, morphine (2 mg/kg body weight) was injected (sc) 5 minutes before the test.
The pain threshold of each mouse was tested before and after morphine or N.S. injection. The values after drug administration minus those before drug administration were considered to be the changing index of pain threshold.

## NC(=O)c1nnn(Cc2cc(Cl)c(C(=O)c3ccc(Cl)cc3)c(Cl)c2)c1N [CAI, 5-amino-1-[3,5-dichloro-4-(4-chlorobenzoyl chloride)benzyl]-1H-1,2,3-triazole-4-carboxamide]
[1]; 1 d, CAI 20 mg/kg/day ig, Dex 0.067 mg/kg/day i.p.
  Primary paw oedema (%), mean ± std: 116.2 ± 17.6 %
[1]; 2 d
  Primary paw oedema (%), mean ± std: 131.9 ± 23.0 %
[1]; 5 d
  Primary paw oedema (%), mean ± std: 122.4 ± 12.4 %
[1]; 8 d
  Primary paw oedema (%), mean ± std: 121.6 ± 21.6 %
[1]; 11 d
  Primary paw oedema (%), mean ± std: 129.3 ± 23.5 %
[1]; 14 d
  Primary paw oedema (%), mean ± std: 112.0 ± 15.7 %
[1]; 14 d, right hind paw
  Secondary paw oedema (%), mean ± std: 2.3 ± 1.0 %
[1]; 17 d
  Primary paw oedema (%), mean ± std: 104.3 ± 20.7 %
  Secondary paw oedema (%), mean ± std: 3.1 ± 0.8%
[1]; 20 d
  Primary paw oedema (%), mean ± std: 92.2 ± 16.0 %
  Secondary paw oedema (%), mean ± std: 8.8 ± 3.2 %
[1]; 23 d
  Primary paw oedema (%), mean ± std: 92.4 ± 15.4 %
  Secondary paw oedema (%), mean ± std: 8.6 ± 2.3 %
[1]; 26 d
  Primary paw oedema (%), mean ± std: 88.6 ± 13.4 %
  Secondary paw oedema (%), mean ± std: 8.6 ± 1.9 %
[1]; 29 d
  Primary paw oedema (%), mean ± std: 86.9 ± 23.1 %
  Secondary paw oedema (%), mean ± std: 6.5 ± 2.7 %
[1]; compared with control group, two-way ANOVA
  Effect on paw oedema of AA rats (in words): inhibits primary and secondary paw oedema
[2]
  Analgesic effect in writhing test (in words): obvious analgesic effect
[2]; 0.6% acetic acid ip, writhing in following 5-15 minutes
  Writhing frequency mean ± std: 8.1 ± 2.3
[3]
  IL-1β levels in paw tissue and serum (in words): significantly reduced
[4]; compared with the control group
  Analgesic effect in radiant heat test (in words): neither have obvious analgesic effect alone
[4]; tail-flick latency after minus before drug, CAI 20 mg/kg ig twice, morphine 2 mg/kg sc
  Pain threshold change (seconds, mean ± std): 2.56 ± 2.62 s
